Tests used:
Lolium multiflorum = assay: Post-emergence treatment test in dry field; type: in vivo; settings: treatment amount 500 g/ha; foliar spray at first to second leaf stage; twenty days after treatment; 0 = no effect, 10 = complete death
Method: A plastic cup with a diameter of 8 cm and a depth of 6.5 cm was filled with commercially available soil. Seeds of Lolium multiflorum were sowed in the cup, covered with soil about 0.5 cm thick and then grown in a greenhouse. When the plants were grown in the first to second leaf stage, a diluted liquid formulation containing a prescribed amount of the compound I-a-2 was sprayed onto the whole plants uniformly. The diluted liquid formulation was prepared by dissolving a prescribed amount of the compound I-a-2 in a 2% solution of Tween 20 (polyoxyethylene sorbitan fatty acid ester, MP Biomedicals, Inc.) in dimethylformamide and then diluting the solution with deionized water. After the treatment, the plants were grown in a greenhouse. Twenty days after treatment, the controlling effect of the compound on Lolium multiflorum was visually evaluated. The effect was rated in 11 levels, from 0 to 10 (0 represents “no effect”; 10 represents “complete death”; and a state of the plant therebetween is rated in levels of 1 to 9).
The other compounds of the present invention, and Compound A described in J. Heterocycl. Chem., vol. 42, pp. 427-435 (2005) as a comparative example were similarly tested.

Apera spica-venti = assay: Pre-emergence treatment test in dry field; type: in vivo; settings: treatment amount 500 g/ha; sprayed onto soil surface after sowing; three weeks after treatment; 0 = no effect, 10 = complete death
Method: A plastic container (32 cm×22 cm×8 cm in height) was filled with soil sterilized by steam. Seeds of Apera spica-venti were sowed in the container and covered with soil about 0.5 cm thick. Then, a diluted liquid formulation containing a prescribed amount of the compound I-a-1 was sprayed onto the soil surface uniformly. The diluted liquid formulation was prepared by the method similar to that in Test example 1. After the treatment, the plants were grown in a greenhouse. Three weeks after treatment, the controlling effect of the compound on Apera spica-venti was visually evaluated. The effect was rated in 11 levels, from 0 to 10 similarly to Test example 1.
The other compounds of the present invention and Compound A as a comparative example were similarly tested.

Cc1ccccc1-c1c(O)cnn(C)c1=O [Compound A]
controlling effect on Lolium multiflorum (visually evaluated, rated 0 to 10) (Lolium multiflorum): 1
controlling effect on Apera spica-venti (visually evaluated, rated 0 to 10) (Apera spica-venti): 1

From patent US8470738B2, “Pyridazinone compound and herbicide containing the same” (Sumitomo Chemical Company, Limited, priority 2007, dated 2013)
